{"source": "patent US7718651B2", "about": "“Inhibitors of FtsZ and uses thereof” (priority 2002, dated 2010)", "data": [{"test_system": "M. tuberculosis H37Rv", "experiment": "microbe, parasite or virus in culture", "type": "cell-based", "conditions": "M. tuberculosis H37Rv, screen concentration 12.5 g/ml [sic], Table 8", "units": {"% Inh": "%"}, "values": [{"smiles": "CCOC(=O)Nc1cc2c(c(N)n1)N=C(c1ccc(OC)cc1)CO2", "note": "[Compound A192]", "% Inh": 0}, {"smiles": "CCOC(=O)Nc1cc2c(c(N)n1)N=C(c1ccc(OC)c(OC)c1)CO2", "note": "[Compound A193]", "% Inh": 0}, {"smiles": "CCOC(=O)Nc1nc(NC(=O)OCC)c2c(c1N)NC(C)C(c1ccccc1)=N2", "note": "(centres unmarked) [Compound A194]", "% Inh": 0}, {"smiles": "CCOC(=O)Nc1cc2[nH]c(=O)c(-c3ccccc3)nc2c(NC(c2ccccc2)c2ccccc2)n1", "note": "[Compound A195]", "% Inh": 0}, {"smiles": "CCOC(=O)Nc1cc2[nH]c(=O)c(-c3ccccc3)nc2c(N)n1", "note": "[Compound A196]", "% Inh": 0}, {"smiles": "CCOC(=O)Nc1cc2c(c(N)n1)N=C(c1ccc(O)cc1)C(C)N2", "note": "(centres unmarked) [Compound A197]", "% Inh": 0}, {"smiles": "CCOC(=O)Nc1cc(N[C@H](C)C(=O)c2ccccc2)c([N+](=O)[O-])c(N)n1", "note": "[Compound A198]", "% Inh": 0}, {"smiles": "CCOC(=O)Nc1cc2c3c(n1)[nH]c(=S)n3c(=S)n2N", "note": "[Compound A199]", "% Inh": 0}, {"smiles": "CCOC(=O)Nc1cc2c([nH]c(=S)n2N)c(N)n1", "note": "[Compound A200]", "% Inh": 0}, {"smiles": "COC(=O)Nc1cc(Cl)cc(NC(=O)OC)n1", "note": "[Compound A201]", "% Inh": 0}, {"smiles": "CCOC(=O)Nc1nc(NC(=O)OCC)c([N+](=O)[O-])c(Cl)c1[N+](=O)[O-]", "note": "[Compound A202]", "% Inh": 0}, {"smiles": "CCOC(=O)Nc1cc2[nH]cnc2c(Cl)n1", "note": "[Compound A203]", "% Inh": 0}, {"smiles": "CCOC(=O)Nc1cc(N(C)/N=C/c2ccccc2)c([N+](=O)[O-])c(N)n1", "note": "[Compound A204]", "% Inh": 0}, {"smiles": "CCOC(=O)Nc1cc(NNC=O)c([N+](=O)[O-])c(N)n1", "note": "[Compound A205]", "% Inh": 0}, {"smiles": "CCOC(=O)Nc1cc2[nH]nnc2c(Cl)n1", "note": "[Compound A206]", "% Inh": 0}, {"smiles": "CCOC(=O)Nc1ccccn1", "note": "[Compound A207]", "% Inh": 0}, {"smiles": "CCOC(=O)Nc1cc(NCC(=O)c2ccc(C)c(C)c2)c([N+](=O)[O-])c(N)n1", "note": "[Compound A208]", "% Inh": 0}, {"smiles": "CCOC(=O)Nc1cc(N(C)N)c([N+](=O)[O-])c(N)n1", "note": "[Compound A209]", "% Inh": 0}, {"smiles": "CCOC(=O)Nc1cc(NC/C(=N/O)c2ccc(C)cc2)c([N+](=O)[O-])c(N)n1", "note": "[Compound A210]", "% Inh": 0}, {"smiles": "CCOC(=O)Nc1cc(NCC(=O)c2ccc(F)cc2)c([N+](=O)[O-])c(N)n1", "note": "[Compound A211]", "% Inh": 0}, {"smiles": "CCOC(=O)Nc1cc(NC/C(=N/O)c2ccc(OC)c(OC)c2OC)c([N+](=O)[O-])c(N)n1", "note": "[Compound A212]", "% Inh": 0}, {"smiles": "CCOC(=O)Nc1cc2c(c(N)n1)[N+](=O)OC(c1ccccc1)N[N-]2", "note": "(centres unmarked) [Compound A214]", "% Inh": 0}, {"smiles": "CCOC(=O)Nc1cc(Cl)c2nn[nH]c2n1", "note": "[Compound A215]", "% Inh": 0}, {"smiles": "CCOC(=O)Nc1cc(NC(c2ccccc2)c2ccccc2)c2nc[nH]c2n1", "note": "[Compound A216]", "% Inh": 0}, {"smiles": "CCOC(=O)Nc1cc(N)c2nc[nH]c2n1", "note": "[Compound A217]", "% Inh": 0}, {"smiles": "CCOC(=O)Nc1cc(N)c2nnsc2n1", "note": "[Compound A218]", "% Inh": 0}, {"smiles": "CCOC(=O)Nc1cc2[nH]c(-c3ccccc3)nc2c(Cl)n1", "note": "[Compound A219]", "% Inh": 0}, {"smiles": "CCOC(=O)Nc1cc(NCC(=O)c2ccc([N+](=O)[O-])cc2)c([N+](=O)[O-])c(N)n1", "note": "[Compound A220]", "% Inh": 0}, {"smiles": "CCOC(=O)Nc1cc(NC/C(=N/O)c2ccc(C(F)(F)F)cc2)c([N+](=O)[O-])c(N)n1", "note": "[Compound A221]", "% Inh": 0}, {"smiles": "CCOC(=O)Nc1cc(NCC(=O)c2ccc(C(F)(F)F)cc2)c([N+](=O)[O-])c(N)n1", "note": "[Compound A222]", "% Inh": 0}, {"smiles": "CCOC(=O)Nc1ccc(/N=C/c2ccccc2)cn1", "note": "[Compound A223]", "% Inh": 0}, {"smiles": "CCOC(=O)Nc1cc2c(c(N)n1)N=C(c1ccccc1)CO2", "note": "[Compound A224]", "% Inh": 0}, {"smiles": "CCOC(=O)Nc1cc2c(c(N)n1)N=C(c1ccc([N+](=O)[O-])cc1)CO2", "note": "[Compound A225]", "% Inh": 0}, {"smiles": "CCOC(=O)Nc1cc2c(c(N)n1)N=C(c1ccc(Cl)cc1)CO2", "note": "[Compound A226]", "% Inh": 0}, {"smiles": "CCOC(=O)Nc1cc2c(c(N)n1)N=C(c1cc(OC)c(OC)c(OC)c1)CO2", "note": "[Compound A227]", "% Inh": 0}, {"smiles": "CCOC(=O)Nc1cc2oc(=O)c(-c3ccccc3)nc2c(N)n1", "note": "[Compound A228]", "% Inh": 0}, {"smiles": "CCOC(=O)Nc1cc2c(c(NC(=O)CBr)n1)N=C(c1ccccc1)CO2", "note": "[Compound A229]", "% Inh": 0}, {"smiles": "CCOC(=O)Nc1cc2c(c(/N=C/N(C)C)n1)N=C(c1ccccc1)CO2", "note": "[Compound A230]", "% Inh": 0}, {"smiles": "CCOC(=O)Nc1cc(NC/C(=N/O)c2cccc(OC)c2)c([N+](=O)[O-])c(N)n1", "note": "[Compound A231]", "% Inh": 0}, {"smiles": "CCOC(=O)Nc1cc(NCC(O)CN(C)C)c([N+](=O)[O-])c(N)n1", "note": "(centres unmarked) [Compound A232]", "% Inh": 0}, {"smiles": "CCOC(=O)Nc1cc(NCC(C)CN(C)c2ccc(OC)cc2)c([N+](=O)[O-])c(N)n1", "note": "(centres unmarked) [Compound A233]", "% Inh": 0}, {"smiles": "CCOC(=O)Nc1cc(Cl)c2nc(-c3ccccc3)[nH]c2n1", "note": "[Compound A234]", "% Inh": 0}, {"smiles": "CCOC(=O)Nc1cc(NC/C(=N/O)c2ccccc2)c([N+](=O)[O-])c(N)n1", "note": "[Compound A235]", "% Inh": 0}, {"smiles": "CCOC(=O)Nc1ccc(N)c(N)n1", "note": "[Compound A236]", "% Inh": 0}, {"smiles": "CCOC(=O)Nc1cc(NCC(=O)c2ccc(OC)cc2)c([N+](=O)[O-])c(N)n1", "note": "[Compound A237]", "% Inh": 0}, {"smiles": "CCOC(=O)Nc1cc(NC/C(=N/O)c2ccc([N+](=O)[O-])cc2)c([N+](=O)[O-])c(N)n1", "note": "[Compound A238]", "% Inh": 0}, {"smiles": "CCOC(=O)Nc1cc(NC/C(=N/O)c2ccc(Cl)cc2)c([N+](=O)[O-])c(N)n1", "note": "[Compound A239]", "% Inh": 0}, {"smiles": "CCOC(=O)Nc1cc(NCC(=O)c2ccc(Cl)cc2)c([N+](=O)[O-])c(N)n1", "note": "[Compound A240]", "% Inh": 0}, {"smiles": "CCOC(=O)Nc1cc2c([nH]c(=S)n2/N=C/c2ccc3c(c2)OCO3)c(N)n1", "note": "[Compound A241]", "% Inh": 0}, {"smiles": "CCOC(=O)Nc1cc2c(ncn2/N=C/c2ccc(OC)cc2)c(N)n1", "note": "[Compound A242]", "% Inh": 0}, {"smiles": "CCOC(=O)Nc1cc(NC(C)CCCN(CC)CC)c([N+](=O)[O-])c(N)n1", "note": "(centres unmarked) [Compound A243]", "% Inh": 0}, {"smiles": "CCOC(=O)Nc1cc(NCc2ccc(S(N)(=O)=O)cc2)c([N+](=O)[O-])c(N)n1", "note": "[Compound A244]", "% Inh": 0}, {"smiles": "CCOC(=O)Nc1cc(NCCc2ccc(S(N)(=O)=O)cc2)c2ncc(C)nc2n1", "note": "[Compound A251]", "% Inh": 0}, {"smiles": "CCOC(=O)Nc1cc(NCCc2ccc(S(=O)(=O)N(CC)CC)cc2)c2nccnc2n1", "note": "[Compound A252]", "% Inh": 0}, {"smiles": "CCOC(=O)Nc1cc(NC(C)CCCN(CC)CC)c2nccnc2n1", "note": "(centres unmarked) [Compound A253]", "% Inh": 0}, {"smiles": "CCOC(=O)Nc1cc(NC(C)CCCN(CC)CC)c2ncc(C)nc2n1", "note": "(centres unmarked) [Compound A254]", "% Inh": 0}, {"smiles": "CCOC(=O)Nc1cc(NCCc2ccc(S(=O)(=O)N(CC)CC)cc2)c2ncc(C)nc2n1", "note": "[Compound A255]", "% Inh": 0}, {"smiles": "CCOC(=O)Nc1cc(Nc2ccc(Cl)cc2)c([N+](=O)[O-])c(N)n1", "note": "[Compound A256]", "% Inh": 0}, {"smiles": "CCOC(=O)Nc1cc(Nc2ccc(Cl)cc2)c2nc(-c3ccccc3)c(-c3ccccc3)nc2n1", "note": "[Compound A257]", "% Inh": 0}, {"smiles": "CCOC(=O)Nc1cc(Nc2ccc(Cl)cc2)c2ncc(-c3ccc(Cl)cc3)nc2n1", "note": "[Compound A258]", "% Inh": 0}, {"smiles": "CCOC(=O)Nc1cc(NCCc2ccc(S(=O)(=O)N(CC)CC)cc2)c2ncc(-c3ccc(Cl)cc3)nc2n1", "note": "[Compound A259]", "% Inh": 0}, {"smiles": "CCOC(=O)Nc1cc(Nc2ccc(Cl)cc2)c2ncc(C)nc2n1", "note": "[Compound A260]", "% Inh": 0}, {"smiles": "CCOC(=O)Nc1cc(NC(c2ccccc2)c2ccccc2)c2ncc(-c3ccc(Cl)cc3)nc2n1", "note": "[Compound A261]", "% Inh": 0}, {"smiles": "CCOC(=O)Nc1cc(N)c2ncc(-c3ccc(Cl)cc3)nc2n1", "note": "[Compound A262]", "% Inh": 0}, {"smiles": "CCOC(=O)Nc1cc(NC(c2ccccc2)c2ccccc2)c(/N=C/c2ccc(Cl)cc2Cl)c(N)n1", "note": "[Compound A263]", "% Inh": 0}, {"smiles": "CCOC(=O)Nc1cc(NC(c2ccccc2)c2ccccc2)c([N+](=O)[O-])c(N)n1", "note": "[Compound A264]", "% Inh": 0}, {"smiles": "CCOC(=O)Nc1cc(NC(c2ccccc2)c2ccccc2)c2nc(-c3cc(OC)c(OC)c(OC)c3)cnc2n1", "note": "[Compound A265]", "% Inh": 0}, {"smiles": "CCCCOC(=O)Nc1cc(NC(c2ccccc2)c2ccccc2)c2nc(-c3cc(OC)c(OC)c(OC)c3)c(-c3cc(OC)c(OC)c(OC)c3)nc2n1", "note": "[Compound A267]", "% Inh": 0}, {"smiles": "CCOC(=O)Nc1cc(Cl)c2nc(-c3cc(OC)c(OC)c(OC)c3)c(-c3cc(OC)c(OC)c(OC)c3)nc2n1", "note": "[Compound A268]", "% Inh": 0}, {"smiles": "CCOC(=O)Nc1cc(NC(C)CCCN(CC)CC)c([N+](=O)[O-])c(N)n1.Cl", "note": "(centres unmarked) [Compound A269]", "% Inh": 0}, {"smiles": "CCOC(=O)Nc1cc(NC(c2ccccc2)c2ccccc2)c2ncc(=O)[nH]c2n1", "note": "[Compound A270]", "% Inh": 0}, {"smiles": "CCOC(=O)Nc1cc(NCC(O)CN)c([N+](=O)[O-])c(NC(=O)OCC)n1", "note": "(centres unmarked) [Compound A271]", "% Inh": 0}, {"smiles": "CCOC(=O)Nc1cc(N)c([N+](=O)[O-])c(NC(=O)OCC)n1", "note": "[Compound A272]", "% Inh": 0}, {"smiles": "CCOC(=O)Nc1cc(N)c2nc(CN(C)c3ccccc3)cnc2n1", "note": "[Compound A273]", "% Inh": 0}]}]}
